Reference: ChEMBL document CHEMBL1201862, “PubChem BioAssay data set” (2004)
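Briefly, cells in 96-well plates were exposed to five compound concentrations for 48 h, and endpoints were estimated by linear interpolation. GI50: concentration for 50% inhibition of growth.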 Activity calls are given as the source filed them. Rule as the data show it: active = GI50 up to about 1.1 µM and inactive = higher.

Columns and labels:
Experiment in all cases: growth of human tumour cells (NCI), 48 h
OVCAR-8 = system: OVCAR-8
DLD-1 = system: DLD-1
HCT-15 = system: HCT-15
MOLT-4 = system: MOLT-4
SNB-19 = system: SNB-19
NCI-H522 = system: NCI-H522
A498 = system: A498
HOP-62 = system: HOP-62
EKVX = system: EKVX
LXFL 529 = system: LXFL 529
KM12 = system: KM12
UO-31 = system: UO-31
U-251 = system: U-251
NCI-H23 = system: NCI-H23
K562 = system: K562
SK-MEL-2 = system: SK-MEL-2
HCC 2998 = system: HCC 2998
CAKI-1 = system: CAKI-1
M19-MEL = system: M19-MEL
RPMI-8226 = system: RPMI-8226
SF-268 = system: SF-268
HL-60 = system: HL-60
COLO 205 = system: COLO 205
OVCAR-3 = system: OVCAR-3
SF-539 = system: SF-539
SK-MEL-28 = system: SK-MEL-28
HOP-18 = system: HOP-18
SF-295 = system: SF-295
HOP-92 = system: HOP-92
A549 = system: A549
HT-29 = system: HT-29
Malme-3M = system: Malme-3M
CCRF-CEM = system: CCRF-CEM
M14 = system: M14
DMS-114 = system: DMS-114
ACHN = system: ACHN
NCI-H460 = system: NCI-H460
KM-20L2 = system: KM-20L2
SK-OV-3 = system: SK-OV-3
SNB-78 = system: SNB-78
IGROV-1 = system: IGROV-1
DMS-273 = system: DMS-273
786-0 = system: 786-0
SW-620 = system: SW-620
LOX IMVI = system: LOX IMVI
UACC-62 = system: UACC-62
OVCAR-5 = system: OVCAR-5
XF498 = system: XF498
SK-MEL-5 = system: SK-MEL-5
HCT-116 = system: HCT-116
TK-10 = system: TK-10
OVCAR-4 = system: OVCAR-4
SN12C = system: SN12C
UACC-257 = system: UACC-257
RXF 631 = system: RXF 631
SR = system: SR
SNB-75 = system: SNB-75

Measured: GI50

COc1ccc(OC(C(=O)O)c2ccccc2)c2c1CCCC2=O (stereo not given)
> 100 µM: HCT-15
inactive: OVCAR-8 > 100 µM | DLD-1 > 100 µM | MOLT-4 > 100 µM | SNB-19 > 100 µM | NCI-H522 > 100 µM | A498 > 100 µM | HOP-62 > 100 µM | EKVX > 100 µM | LXFL 529 > 100 µM | KM12 > 100 µM | UO-31 > 100 µM | U-251 > 100 µM | NCI-H23 > 100 µM | K562 > 100 µM | SK-MEL-2 > 100 µM | HCC 2998 > 100 µM | CAKI-1 > 100 µM | M19-MEL > 100 µM | RPMI-8226 > 100 µM | SF-268 > 100 µM | HL-60 > 100 µM | COLO 205 > 100 µM | OVCAR-3 > 100 µM | SF-539 > 100 µM | SK-MEL-28 > 100 µM | HOP-18 > 100 µM | SF-295 > 100 µM | HOP-92 > 100 µM | A549 > 100 µM | HT-29 > 100 µM | Malme-3M > 100 µM | CCRF-CEM > 100 µM | M14 > 100 µM | DMS-114 > 100 µM | ACHN > 100 µM | NCI-H460 > 100 µM | KM-20L2 > 100 µM | SK-OV-3 > 100 µM | SNB-78 > 100 µM | IGROV-1 > 100 µM | DMS-273 > 100 µM | 786-0 > 100 µM | SW-620 > 100 µM | LOX IMVI > 100 µM | UACC-62 > 100 µM | OVCAR-5 > 100 µM | XF498 > 100 µM | SK-MEL-5 > 100 µM | HCT-116 > 100 µM | TK-10 > 100 µM | OVCAR-4 > 100 µM | SN12C > 100 µM | UACC-257 > 100 µM | RXF 631 > 100 µM

CCOC(=O)C1C(NC(N)=O)N(Cc2ccccc2)C(=O)N1Cc1ccccc1 (stereo not given)
inactive: OVCAR-8 > 100 µM | DLD-1 > 100 µM | MOLT-4 > 100 µM | SNB-19 > 100 µM | NCI-H522 > 100 µM | HOP-62 > 100 µM | EKVX > 100 µM | LXFL 529 > 100 µM | KM12 > 100 µM | UO-31 > 100 µM | U-251 17.3 µM | NCI-H23 > 10 µM | K562 > 100 µM | SK-MEL-2 > 100 µM | HCC 2998 > 100 µM | CAKI-1 > 100 µM | M19-MEL > 100 µM | RPMI-8226 > 100 µM | SF-268 > 100 µM | HL-60 > 100 µM | COLO 205 > 100 µM | OVCAR-3 > 100 µM | SF-539 > 100 µM | SK-MEL-28 > 100 µM | HOP-18 > 100 µM | SF-295 > 100 µM | HOP-92 > 100 µM | A549 > 100 µM | HT-29 > 100 µM | Malme-3M > 100 µM | CCRF-CEM > 100 µM | M14 > 100 µM | DMS-114 > 100 µM | ACHN > 100 µM | NCI-H460 > 100 µM | KM-20L2 41.3 µM | SK-OV-3 > 100 µM | SNB-78 15.4 µM | IGROV-1 > 100 µM | SR > 100 µM | DMS-273 > 100 µM | 786-0 > 100 µM | SW-620 > 100 µM | LOX IMVI > 100 µM | UACC-62 > 100 µM | OVCAR-5 29.3 µM | XF498 > 100 µM | SK-MEL-5 > 100 µM | SNB-75 > 100 µM | HCT-116 > 100 µM | TK-10 > 100 µM | OVCAR-4 > 100 µM | UACC-257 > 100 µM | RXF 631 > 100 µM
> 100 µM: HCT-15
